Measurements as given in article PMC6595003, “Insights into real-time chemical processes in a calcium sensor protein-directed dynamic library” (Nature Communications, 2019).
“And” between values parts separate entries of the source, which are not always exact repeats. Equal values may be shown once. Values belong to the compound of their own block, whether it stands above or below them.

Legend:
dNCS-1 [1] = target: T1, dNCS-1 (Drosophila melanogaster, UniProt Q9VWX8); experiment: Tryptophan emission fluorescence of dNCS-1 at increasing ligand concentrations (apparent Kd); type: binding
T1 construct: made in house; host or cells: E. coli
T1 sequence (Q9VWX8 1-187): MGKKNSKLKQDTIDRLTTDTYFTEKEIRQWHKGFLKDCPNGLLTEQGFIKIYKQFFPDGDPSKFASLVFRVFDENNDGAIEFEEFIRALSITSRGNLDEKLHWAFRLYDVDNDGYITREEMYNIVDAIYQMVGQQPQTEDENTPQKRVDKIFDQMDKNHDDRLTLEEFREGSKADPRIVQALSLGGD
Method: Fluorescence-based experiments with 3a–3e were carried out to estimate their affinity to dNCS-1.
Mean ± SD from three independent experiments. The curves represent the least squares fitting of the experimental data to a 1:1 stoichiometry. To properly compare the different curves, intensities were normalized and represented. […] Input represents 1/10 cell lysates before IP. Quantifications of each lane from four experiments are shown below the blots. Bars represent percentage of NCS-1/ Ric8a binding (mean ± SD) normalized to DMSO. […] Mean ± SD from three independent experiments. […] Then, the percentage of picnotic bodies over the total nuclei was analyzed. Mean ± SD from three independent experiments. Paired two-tailed Student’s test ***P˂0.001; **P < 0.01; *P < 0.05. Source data are provided as a Source Data file. IP immunoprecipitation, WB western blot […]
the length of the pass light (L) is 1cm (see Supplementary Table 3 and Supplementary […]
Fluorescence emission experiments. Tryptophan emission fluorescence of dNCS-1 […]
affinity and calculate the apparent dissociation constant, Kd. Fluorescence measurements were performed by Jobin Yvon Floromax4 spectrofluorimeter equipped […]
5% DMSO at 5 °C. The excitation wavelength was fixed at 295 nm, and the emission spectra range were collected over 300-400 nm.
Then, three independent experiments were performed
Fluorescence intensities were normalized and represented as (I0 − I)/I 0. I stands for the observed fluorescence emission at 345 nm (fluorescence maximum), and I0 is the observed fluorescence emission of the protein itself without any small molecule. The apparent dissociation constant was obtained using a least squares algorithm to fit the experimental data to a 1:1 stoichiometry model.6 The fitting was performed with KaleidaGraph Data Analysis Program. […]
Protein expression and purification. Drosophila and human NCS-1 were over-expressed in E. coli and subsequently purified to homogeneity as previously described.9

dNCS-1 [2] = target: T1, dNCS-1; experiment: Protein-directed DCL, HPLC-MS relative peak area with and without dNCS-1
Method: The reversibility of the DCL was evident, since an identical equilibrium distribution to that shown in Fig. 4a was obtained when two different starting points were employed. The observed degree of amplification was 3b > 3e ≥ 3d > 3a. The precise composition of the DCL (with and without dNCS-1), was assessed by measuring the relative peak area (RPA). Indeed, the normalized change of RPA was used to quantify the protein influence in the final outcome (Supplementary Figs. 9, 10 and Supplementary Tables 1, 2 and 3)[28]. […] Note that compounds 3a–3e can exist as E/Z isomers of the C = N bond. […].
Aldehyde 1 (1.2 μL, 50 mM, DMSO), the five acylhydrazides 2a–2e (5 × 3.6 μL, 50 mM, DMSO), p-anisidine (1 μL, 12 M, DMSO) and buffer 20 mM Tris, 0.5 M NaCl and 1 mM CaCl2, 1 mM DTT at pH 7.4 (750 μL) in 3.3 % DMSO. The mixture was stabilized in 5 h at 4 °C. HPLC analysis was performed.
Aldehyde 1 (1.2 μL, 50 mM, DMSO), the five acylhydrazides 2a–2e (5 × 3.6 μL, 50 mM, DMSO), p-anisidine (1 μL, 12 mM, DMSO) and dNCS-1 in buffer 20 mM Tris, 0.5 M NaCl and 1 mM CaCl2, 1 mM DTT at pH 7.4 (66.7 μM, 750 μL, 1 eq.). The experiment is in 3.3% DMSO. The mixture was stabilized for 5 h at 4 °C. Then, dNCS-1 was removed by ultrafiltration using an Amicon Ultra filter (0.5–10 KDa). HPLC analysis was performed and the traces were compared with the blank composition.
Supplementary Figure 9. Relative Peak Area of the DCL with and without dNCS1. Aldehyde
1 (1.2 µL, 50 mM), 2a-e (3.6 µL, 50 mM), catalyst (1 µL, 12 M), dNCS-1:1 [1:1], tris buffer (20
mM, pH 7.4), 1 mM CaCl2, 0.5 M NaCl, 1 mM DTT, T = 4 °C, 2% DM SO. Mean relative peak
area (RPA) of each acylhydrazone of the library in the absence (blank) and presence of dNCS-1.
Error bars indicate standard deviation (SD) over three experiments. The calculation is set by the
sum of all peak areas to 100% and assigning each peak its percentage. Source data are provided
R P A N o rm aliz ed V a riation
Supplementary Figure 10. RPA normalized of variation of DCL with and without dNCS1.
Aldehyde 1 (1.2 µL, 50 mM), 2a-e (3.6 µL, 50 mM), catalyst (1 µL, 12 M), dNCS-1:1 [1:1], tris
buffer (20 mM, pH 7.4), 1 mM CaCl2, 0.5 M NaCl, 1 mM DTT, T = 4 °C, 2% DM SO. Error
bars indicate SD over three experiments. Source data are provided as a Source Data file.

dNCS-1 [3] = target: T1, dNCS-1; experiment: tr-NOESY, DOSY and 1H-NMR of DCL mixtures in the presence of dNCS-1; type: binding; conditions: 281 K, up to 15 days
Method: Fig. 4 HPLC-MS and NMR studies of the full dynamic combinatorial library. a DCL chromatograms after 5 h in the absence and in the presence of dNCS-1. Conditions: aldehyde 1 (1.2 µL, 50 mM), 2a–2e (3.6 µL, 50 mM), catalyst (1 µL, 12 M), dNCS-1:1 [1:1], Tris buffer (20 mM, pH 7.4), 1 mM CaCl2, 0.5 M NaCl, 1 mM DTT, T = 4 °C, 2% DMSO. DCC experiments were carried out in triplicate. b 1D-^1H NMR spectrum (red) of the mixture and DOSY experiment (black) of the DCL in the presence of dNCS-1 (281 K, 600 MHz). c Tr-NOESY spectrum of the DCL mixture in the presence of dNCS-1 (mixing time 200 ms, 281 K, 600 MHz). Amplification of the region δ 7.2–8.0 ppm. […]. The new signals that reveal the formation of 3b (aromatic region) and 2c (aliphatic region) are marked with stars. ^1H-STD-NMR (blue) and off-resonance (red) NMR spectra of the mixture 2b + 3c + dNCS-1 (281 K, 600 MHz) after 15 days
DOSY-NMR and tr-NOESY-NMR experiments were also recorded to follow the exchange process.
The experiments were performed on the same samples and spectrometer, at 281 K. The tr-NOESY mixing time was fixed at 200 ms. The DOSY experiments were acquired with 16 gradient increments to a final intensity decay of 90%.

NCS-1/Ric8a interaction [4] = target: T2, NCS-1/Ric8a interaction (Homo sapiens, UniProt P62166); experiment: Co-IP binding assay of human NCS-1 and V5-tagged Ric8a in transfected HEK cells; type: cell-based; conditions: compound 20 μM
T2 construct: expressed in transfected cells; host or cells: HEK293 cells (Dharmacon)
Description: (§1) Mean ± SD from three independent experiments. The curves represent the least squares fitting of the experimental data to a 1:1 stoichiometry. To properly compare the different curves, intensities were normalized and represented. […] Input represents 1/10 cell lysates before IP. Quantifications of each lane from four experiments are shown below the blots. Bars represent percentage of NCS-1/ Ric8a binding (mean ± SD) normalized to DMSO. […] CNS + (green) for Pe > 4.47 × 10^−6 cm s^−1, CNS- (red) for compounds with Pe < 4.47 × 10^–6 cm s^−1. […] Mean ± SD from three independent experiments. […] Then, the percentage of picnotic bodies over the total nuclei was analyzed. Mean ± SD from three independent experiments. Paired two-tailed Student’s test ***P˂0.001; **P < 0.01; *P < 0.05. Source data are provided as a Source Data file. IP immunoprecipitation, WB western blot
Binding assays with NCS-1 and Ric8a in co-transfected HEK cells were carried out to study the modulation effect of compounds 3a, 3b and 3d in the protein-protein interaction (Fig. 6b).
hNCS-1 and V5-tagged hRic8a were co-transfected into HEK293 cells (Dharmacon) using Lipofectamine 2000 (Invitrogen)[13]. After 24 h, after transfection, DMSO alone or the compounds dissolved in DMSO (20 μM) were added to the culture cells. Then, 24 h after transfection, cells were lysed with Lysis buffer (150 mM NaCl, 1.0% Nonidet P-40, 50 mM Tris, pH 8.0) in the presence of the compounds (20 μM), whose concentration was maintained throughout the immunoprecipitation assay. Precleared lysates were incubated overnight (12 h) at 4 °C with mouse anti-NCS-1 (1:500; Cell Signaling). Samples were subsequently incubated overnight with Protein-G-Sepharose (Sigma-Aldrich), washed and eluted from the Sepharose. Samples were analyzed by Western blot following standard procedures. […] Original representative western blots are found in Source Data file.

[5] = system: Cortical neurons from E14 wild-type mice; experiment: Toxicity in primary cultured neurons (percentage of picnotic bodies); type: cell-based; conditions: C57BL6J, mouse, 24 h
Description: as §1
Finally, cell toxicity in neurons was quantified as percentage of picnotic bodies for 3b (Fig. 6d).
Cortical neurons were obtained from E14 wt mice (C57BL6J). Mice were maintained in accordance to European law and following Hospital Ramón y Cajal´s animal guidelines. […] Three independent experiments counting cells from three different wells per concentration were performed. To analyzed cell death, neurons were fixed and stained with DAPI.

NCS-1/Ric8a interaction [6] = system: NCS-1/Ric8a interaction; set-up: method as in PMID 28119500, PMID 29966094; conditions: cited from earlier work
[7] = Ca2+ loaded dNCS-1 0.8 µM, pH 7.9, 5% DMSO, 5 °C, fit to 1:1 stoichiometry, three independent experiments

T2 sequence (P62166 2-190 limits assumed): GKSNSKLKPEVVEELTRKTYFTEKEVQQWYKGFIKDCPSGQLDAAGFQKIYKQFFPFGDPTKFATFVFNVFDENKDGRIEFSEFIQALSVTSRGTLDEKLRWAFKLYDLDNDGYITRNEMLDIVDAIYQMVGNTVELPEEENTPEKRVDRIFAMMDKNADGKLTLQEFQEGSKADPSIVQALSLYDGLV

apparent Kd (dNCS-1 [1]; [7]): did not show affinity
degree of amplification in the DCL in presence of dNCS-1 (dNCS-1 [2]; after 5 h, 4 °C, pH 7.4, p-anisidine catalyst): clearly reduced in presence of dNCS-1
RPA, Blank DCL (dNCS-1 [2]; as fraction of total area): 0.09603
RPA, Templated DCL (dNCS-1 [2]; as fraction of total area, with dNCS-1): 0
RPA (%) with protein (templated DCL) (dNCS-1 [2]; relative peak area in presence of dNCS-1): 0%
RPA (%) without protein (blank DCL) (dNCS-1 [2]; relative peak area, sum of all peak areas set to 100%): 9.6% and 9.603%
RPA (%), Blank DCL (dNCS-1 [2]; sheet Supplementary Figure 10): 9.6%
RPA (%), Templated DCL (dNCS-1 [2]; sheet Supplementary Figure 10, with dNCS-1): 0%
Normalized Change of RPA (dNCS-1 [2]; with vs without dNCS-1): -1
SMILES: COCCC(=O)N/N=C/c1ccc([N+](=O)[O-])c(O)c1 [3c]
binding to dNCS-1 (1H-NMR evolution of the mixture 3c + 2b with dNCS-1) (dNCS-1 [3]): extremely weak or non-binder

Kd (dNCS-1 [1]; [7]): 12 ± 2 µM
Normalized Fluorescence I0-I/I0 (dNCS-1 [1]; ligand 3.2 μM): 0.266
Normalized Fluorescence I0-I/I0 (dNCS-1 [1]; ligand 6.4 μM): 0.263
Normalized Fluorescence I0-I/I0 (dNCS-1 [1]; ligand 8 μM): 0.448
Normalized Fluorescence I0-I/I0 (dNCS-1 [1]; ligand 16 μM): 0.643
Normalized Fluorescence I0-I/I0 (dNCS-1 [1]; ligand 24 μM): 0.730
Normalized Fluorescence I0-I/I0 (dNCS-1 [1]; ligand 32 μM): 0.794
modulation of the NCS-1/Ric8a binding (NCS-1/Ric8a interaction [4]; compared with DMSO (basal binding 100%)): reduced binding
Densitometry of V5-Ric8a co-immunoprecipitated with NCS-1, exp3 (NCS-1/Ric8a interaction [4]; DMSO in the same experiment 4613104): 3547054
Densitometry of V5-Ric8a co-immunoprecipitated with NCS-1, exp2 (NCS-1/Ric8a interaction [4]; DMSO in the same experiment 9508518): 4354560
Densitometry of V5-Ric8a co-immunoprecipitated with NCS-1, exp1 (NCS-1/Ric8a interaction [4]; DMSO in the same experiment 19247016): 3883518
SMILES: CN(C)CCCN1c2ccccc2Sc2ccc(Cl)cc21 [CPZ, Chlorpromazine, reference compound]
percentage of picnotic bodies over total nuclei, average ([5]; 0.2 μM): 11.1667%
percentage of picnotic bodies, % exp 2 ([5]; 0.2 μM): 9.6%
percentage of picnotic bodies, % exp 3 ([5]; 0.2 μM): 11.1%
percentage of picnotic bodies, % exp.1 ([5]; 0.2 μM): 12.8%
percentage of picnotic bodies over total nuclei, average ([5]; 2 μM): 15.1%
percentage of picnotic bodies, % exp 2 ([5]; 2 μM): 11%
percentage of picnotic bodies, % exp 3 ([5]; 2 μM): 19.3%
percentage of picnotic bodies, % exp.1 ([5]; 2 μM): 15%
percentage of picnotic bodies over total nuclei, average ([5]; 10 μM): 22.2333%
percentage of picnotic bodies, % exp 2 ([5]; 10 μM): 25.7%
percentage of picnotic bodies, % exp 3 ([5]; 10 μM): 15%
percentage of picnotic bodies, % exp.1 ([5]; 10 μM): 26%
percentage of picnotic bodies over total nuclei, average ([5]; 20 μM): 38.7667%
percentage of picnotic bodies, % exp 2 ([5]; 20 μM): 29.3%
percentage of picnotic bodies, % exp 3 ([5]; 20 μM): 39%
percentage of picnotic bodies, % exp.1 ([5]; 20 μM): 48%
reported inhibition of the NCS-1/Ric8a interaction (NCS-1/Ric8a interaction [6]): mild inhibitor and mild
